Measured values published in patent US11090319B2, “Therapeutic uses of pharmaceutical compositions comprising cyclic boronic acid ester derivatives” (Melinta Subsidiary Corp., priority 2010, dated 2021).
Read-outs that look alike come from different tables or passages of the source.

Key:
[1] = system: strains expressing class A ESBLs; type: cell-based; settings: tigemonam at 4 μg/mL; for MPC4 TEM-10 EC1009: strain EC1009 TEM-10; for MPC4 CTX-M-14 KP1005: strain KP1005 CTX-M-14; for MPC4 CTX-M-15 KP1009: strain KP1009 CTX-M-15; for MPC4 SHV-12 KP1010: strain KP1010 SHV-12; for MPC4 SHV-18 KP1012: strain KP1012 SHV-18; for MPC4 TEM-10 ec302: strain ec302 TEM-10; for MPC4 TEM-26 ec304: strain ec304 TEM-26; for MPC4 SHV-5 ec308: strain ec308 SHV-5
Experimental: Selected β-lactamase inhibitors were also tested for their ability to potentiate the monobactam tigemonam.

[2] = system: strains expressing KPC alone or in combination with additional beta-lactamases; experiment: microbe, parasite or virus in culture; type: cell-based

SMILES | MPC4 TEM-10 EC1009 [1] | MPC4 CTX-M-14 KP1005 [1] | MPC4 CTX-M-15 KP1009 [1] | MPC4 SHV-12 KP1010 [1] | MPC4 SHV-18 KP1012 [1] | MPC4 TEM-10 ec302 [1] | MPC4 TEM-26 ec304 [1] | MPC4 SHV-5 ec308 [1] | also measured
N[C@@H](C(=O)N[C@H]1CC[C@@H](CC(=O)O)OB1O)c1ccccc1 [Compound 9] | Z (MPC@4 of greater than 10 μg/mL) | Z (MPC@4 of greater than 10 μg/mL) | Z (MPC@4 of greater than 10 μg/mL) | Z (MPC@4 of greater than 10 μg/mL) | Z (MPC@4 of greater than 10 μg/mL) | Z (MPC@4 of greater than 10 μg/mL) | Z (MPC@4 of greater than 10 μg/mL) | Z (MPC@4 of greater than 10 μg/mL) | –
O=C(O)C[C@@H]1CC[C@H](NC(=O)NCc2ccccc2)B(O)O1 [Compound 18] | X (MPC@4 of less than 2 μg/mL) | X (MPC@4 of less than 2 μg/mL) | X (MPC@4 of less than 2 μg/mL) | X (MPC@4 of less than 2 μg/mL) | X (MPC@4 of less than 2 μg/mL) | Y (MPC@4 of 2 μg/mL to 10 μg/mL) | Y (MPC@4 of 2 μg/mL to 10 μg/mL) | Y (MPC@4 of 2 μg/mL to 10 μg/mL) | –
O=C(O)CC1C=CC[C@H](NC(=O)Cc2cccs2)B(O)O1 (stereo partly drawn) [Compound 64, 2-((3R)-2-hydroxy-3-(2-(thiophen-2-yl)acetamido)-2,3,4,7-tetrahydro-1,2-oxaborepin-7-yl)acetic acid] | Y (MPC@4 of 2 μg/mL to 10 μg/mL) | Z (MPC@4 of greater than 10 μg/mL) | Y (MPC@4 of 2 μg/mL to 10 μg/mL) | X (MPC@4 of less than 2 μg/mL) | Y (MPC@4 of 2 μg/mL to 10 μg/mL) | Z (MPC@4 of greater than 10 μg/mL) | Z (MPC@4 of greater than 10 μg/mL) | Y (MPC@4 of 2 μg/mL to 10 μg/mL) | –
O=C(O)C[C@@H]1C=CC[C@H](NC(=O)Cc2cccs2)B(O)O1 [Compound 67, 2-((3R,7R)-2-hydroxy-3-(2-(thiophen-2-yl)acetamido)-2,3,4,7-tetrahydro-1,2-oxaborepin-7-yl)acetic acid] | Z (MPC@4 of greater than 10 μg/mL) | Z (MPC@4 of greater than 10 μg/mL) | Y (MPC@4 of 2 μg/mL to 10 μg/mL) | Y (MPC@4 of 2 μg/mL to 10 μg/mL) | Y (MPC@4 of 2 μg/mL to 10 μg/mL) | Z (MPC@4 of greater than 10 μg/mL) | Z (MPC@4 of greater than 10 μg/mL) | Z (MPC@4 of greater than 10 μg/mL) | –
O=C(O)C[C@H]1C=CC[C@H](NC(=O)Cc2cccs2)B(O)O1 [Compound 68, 2-((3R,7S)-2-hydroxy-3-(2-(thiophen-2-yl)acetamido)-2,3,4,7-tetrahydro-1,2-oxaborepin-7-yl)acetic acid] | Y (MPC@4 of 2 μg/mL to 10 μg/mL) | Y (MPC@4 of 2 μg/mL to 10 μg/mL) | Y (MPC@4 of 2 μg/mL to 10 μg/mL) | X (MPC@4 of less than 2 μg/mL) | X (MPC@4 of less than 2 μg/mL) | Y (MPC@4 of 2 μg/mL to 10 μg/mL) | Y (MPC@4 of 2 μg/mL to 10 μg/mL) | Y (MPC@4 of 2 μg/mL to 10 μg/mL) | –
C[C@@H](O)[C@H]1C(=O)N2C(C(=O)O)=C(S[C@@H]3CN[C@H](CNS(N)(=O)=O)C3)[C@H](C)[C@H]12 [Doripenem] | – | – | – | – | – | – | – | – | MIC ([2]; Enterobacter cloacae, Enterobacter cloacae ECL1058, KPC-3, SHV-11, TEM-1, Compound 5 0 mg/L, read-out: MIC of Doripenem): > 4 µg/mL; MIC ([2]; Enterobacter cloacae, Enterobacter cloacae ECL1059, KPC-3, SHV-12, TEM-1, Compound 5 0 mg/L, read-out: MIC of Doripenem): 0.5 to 4 µg/mL; MIC ([2]; Escherichia coli, Escherichia coli EC1007, KPC-3, Compound 5 0 mg/L, read-out: MIC of Doripenem): 0.5 to 4 µg/mL; MIC ([2]; Klebsiella oxytoca, Klebsiella oxytoca KX1017, KPC-2, OXA-2, SHV-30, Compound 5 0 mg/L, read-out: MIC of Doripenem): 0.5 to 4 µg/mL; MIC ([2]; Klebsiella oxytoca, Klebsiella oxytoca KX1018, KPC-2, SHV-40, OXY-1, Compound 5 0 mg/L, read-out: MIC of Doripenem): 0.5 to 4 µg/mL; MIC ([2]; Klebsiella oxytoca, Klebsiella oxytoca KX1019, KPC-2 OXA-2, Compound 5 0 mg/L, read-out: MIC of Doripenem): 0.5 to 4 µg/mL; MIC ([2]; Klebsiella pneumoniae, Klebsiella pneumoniae KP 1004, KPC-2, Compound 5 0 mg/L, read-out: MIC of Doripenem): 0.5 to 4 µg/mL; MIC ([2]; Klebsiella pneumoniae, Klebsiella pneumoniae KP 1008, KPC-2, Compound 5 0 mg/L, read-out: MIC of Doripenem): 0.5 to 4 µg/mL; MIC ([2]; Klebsiella pneumoniae, Klebsiella pneumoniae KP1082, KPC-2 SHV-1, Compound 5 0 mg/L, read-out: MIC of Doripenem): 0.5 to 4 µg/mL; MIC ([2]; Klebsiella pneumoniae, Klebsiella pneumoniae KP1083, KPC-3, SHV-1, TEM-1, Compound 5 0 mg/L, read-out: MIC of Doripenem): > 4 µg/mL; MIC ([2]; Klebsiella pneumoniae, Klebsiella pneumoniae KP1084, KPC-3, SHV-11, TEM-1, Compound 5 0 mg/L, read-out: MIC of Doripenem): > 4 µg/mL; MIC ([2]; Klebsiella pneumoniae, Klebsiella pneumoniae KP 1087, KPC-2, CTX-M-15, SHV-11, TEM-1, Compound 5 0 mg/L, read-out: MIC of Doripenem): > 4 µg/mL; MIC ([2]; Klebsiella pneumoniae, Klebsiella pneumoniae KP1088, KPC-3, SHV-11, TEM-1, Compound 5 0 mg/L, read-out: MIC of Doripenem): 0.5 to 4 µg/mL
C[C@@H](O)[C@H]1C(=O)N2C(C(=O)O)=C(S[C@@H]3CN[C@H](C(=O)Nc4cccc(C(=O)O)c4)C3)[C@H](C)[C@H]12 [Ertapenem] | – | – | – | – | – | – | – | – | MIC ([2]; Enterobacter cloacae, Enterobacter cloacae ECL1058, KPC-3, SHV-11, TEM-1, Compound 5 0 mg/L, read-out: MIC of Ertapenem): > 4 µg/mL; MIC ([2]; Enterobacter cloacae, Enterobacter cloacae ECL1059, KPC-3, SHV-12, TEM-1, Compound 5 0 mg/L, read-out: MIC of Ertapenem): 0.5 to 4 µg/mL; MIC ([2]; Escherichia coli, Escherichia coli EC1007, KPC-3, Compound 5 0 mg/L, read-out: MIC of Ertapenem): > 4 µg/mL; MIC ([2]; Klebsiella oxytoca, Klebsiella oxytoca KX1017, KPC-2, OXA-2, SHV-30, Compound 5 0 mg/L, read-out: MIC of Ertapenem): > 4 µg/mL; MIC ([2]; Klebsiella oxytoca, Klebsiella oxytoca KX1018, KPC-2, SHV-40, OXY-1, Compound 5 0 mg/L, read-out: MIC of Ertapenem): > 4 µg/mL; MIC ([2]; Klebsiella oxytoca, Klebsiella oxytoca KX1019, KPC-2 OXA-2, Compound 5 0 mg/L, read-out: MIC of Ertapenem): > 4 µg/mL; MIC ([2]; Klebsiella pneumoniae, Klebsiella pneumoniae KP 1004, KPC-2, Compound 5 0 mg/L, read-out: MIC of Ertapenem): > 4 µg/mL; MIC ([2]; Klebsiella pneumoniae, Klebsiella pneumoniae KP 1008, KPC-2, Compound 5 0 mg/L, read-out: MIC of Ertapenem): > 4 µg/mL; MIC ([2]; Klebsiella pneumoniae, Klebsiella pneumoniae KP1082, KPC-2 SHV-1, Compound 5 0 mg/L, read-out: MIC of Ertapenem): 0.5 to 4 µg/mL; MIC ([2]; Klebsiella pneumoniae, Klebsiella pneumoniae KP1083, KPC-3, SHV-1, TEM-1, Compound 5 0 mg/L, read-out: MIC of Ertapenem): > 4 µg/mL; MIC ([2]; Klebsiella pneumoniae, Klebsiella pneumoniae KP1084, KPC-3, SHV-11, TEM-1, Compound 5 0 mg/L, read-out: MIC of Ertapenem): > 4 µg/mL; MIC ([2]; Klebsiella pneumoniae, Klebsiella pneumoniae KP 1087, KPC-2, CTX-M-15, SHV-11, TEM-1, Compound 5 0 mg/L, read-out: MIC of Ertapenem): > 4 µg/mL; MIC ([2]; Klebsiella pneumoniae, Klebsiella pneumoniae KP1088, KPC-3, SHV-11, TEM-1, Compound 5 0 mg/L, read-out: MIC of Ertapenem): > 4 µg/mL
C[C@@H](O)[C@H]1C(=O)N2C(C(=O)O)=C(SCCN=CN)C[C@H]12 [Imipenem] | – | – | – | – | – | – | – | – | MIC ([2]; Escherichia coli, read-out: MIC of Imipenem): > 4 µg/mL
C[C@@H](O)[C@H]1C(=O)N2C(C(=O)O)=C(S[C@@H]3CN[C@H](C(=O)N(C)C)C3)[C@H](C)[C@H]12 [Meropenem] | – | – | – | – | – | – | – | – | MIC ([2]; Enterobacter cloacae, read-out: MIC of Meropenem, Enterobacter cloacae ECL1058, KPC-3, SHV-11, TEM-1, Compound 5 0 mg/L): > 4 µg/mL; MIC ([2]; Enterobacter cloacae, read-out: MIC of Meropenem, Enterobacter cloacae ECL1059, KPC-3, SHV-12, TEM-1, Compound 5 0 mg/L): 0.5 to 4 µg/mL; MIC ([2]; Escherichia coli, read-out: MIC of Meropenem, Escherichia coli EC1007, KPC-3, Compound 5 0 mg/L): 0.5 to 4 µg/mL; MIC ([2]; Klebsiella oxytoca, read-out: MIC of Meropenem, Klebsiella oxytoca KX1017, KPC-2, OXA-2, SHV-30, Compound 5 0 mg/L): 0.5 to 4 µg/mL; MIC ([2]; Klebsiella oxytoca, read-out: MIC of Meropenem, Klebsiella oxytoca KX1018, KPC-2, SHV-40, OXY-1, Compound 5 0 mg/L): 0.5 to 4 µg/mL; MIC ([2]; Klebsiella oxytoca, read-out: MIC of Meropenem, Klebsiella oxytoca KX1019, KPC-2 OXA-2, Compound 5 0 mg/L): 0.5 to 4 µg/mL; MIC ([2]; Klebsiella pneumoniae, read-out: MIC of Meropenem, Klebsiella pneumoniae KP 1004, KP C-2, Compound 5 0 mg/L): > 4 µg/mL; MIC ([2]; Klebsiella pneumoniae, read-out: MIC of Meropenem, Klebsiella pneumoniae KP 1008, KPC-2, Compound 5 0 mg/L): 0.5 to 4 µg/mL; MIC ([2]; Klebsiella pneumoniae, read-out: MIC of Meropenem, Klebsiella pneumoniae KP1082, KPC-2 SHV-1, Compound 5 0 mg/L): 0.5 to 4 µg/mL; MIC ([2]; Klebsiella pneumoniae, read-out: MIC of Meropenem, Klebsiella pneumoniae KP1083, KPC-3, SHV-1, TEM-1, Compound 5 0 mg/L): > 4 µg/mL; MIC ([2]; Klebsiella pneumoniae, read-out: MIC of Meropenem, Klebsiella pneumoniae KP1084, KPC-3, SHV-11, TEM-1, Compound 5 0 mg/L): > 4 µg/mL; MIC ([2]; Klebsiella pneumoniae, read-out: MIC of Meropenem, Klebsiella pneumoniae KP 1087, KPC-2, CTX-M-15, SHV-11, TEM-1, Compound 5 0 mg/L): > 4 µg/mL; MIC ([2]; Klebsiella pneumoniae, read-out: MIC of Meropenem, Klebsiella pneumoniae KP1088, KPC-3, SHV-11, TEM-1, Compound 5 0 mg/L): > 4 µg/mL
